Assays:
Format in all cases: in vitro ADME
[1] = molecular target: T1, P-glycoprotein (P-gp) (Homo sapiens, UniProt P08183); assay: In vitro inhibition of human transporter P-gp; conditions: in vitro cell test system; read-out: IC50, inhibition of probe substrate transport via P-gp
T1 construct: host or cells: unspecified cell test systems
Description: (§1) The in vitro potential for Compound 1 Form A to be an inhibitor of the human transporters P-glycoprotein (P-gp), […] (OATP) 1B1 and OATP1B3 was assessed in various in vitro cell test systems, and of BSEP in membrane vesicles.
(§2) A decrease in the transporter-mediated activity of probe substrate in the presence of a positive control inhibitor, determined from incubations run alongside test compound, confirmed that the in vitro test systems were capable of identifying transporter inhibitors.

[2] = molecular target: T2, OATP1B1 (Homo sapiens, UniProt Q9Y6L6); assay: In vitro inhibition of human transporter OATP1B1; conditions: in vitro cell test system; read-out: IC50, inhibition of probe substrate transport via OATP1B1
T2 construct: host or cells: unspecified cell test systems
Description: as §1, §2

[3] = molecular target: T3, OATP1B3 (Homo sapiens, UniProt Q9NPD5); assay: In vitro inhibition of human transporter OATP1B3; conditions: in vitro cell test system; read-out: IC50, inhibition of probe substrate transport via OATP1B3
T3 construct: host or cells: unspecified cell test systems
Description: as §1, §2

[4] = molecular target: BSEP (Homo sapiens, UniProt O95342); assay: In vitro inhibition of BSEP in membrane vesicles; conditions: read-out: IC50, inhibition of probe substrate transport via BSEP
Description: as §1, §2

[5] = molecular target: T4, CYP1A2 (Homo sapiens, UniProt P05177); assay: CYP450 reaction phenotyping in Supersomes, CYP1A2
T4 construct: purchased
T4 sequence (P05177 1-516): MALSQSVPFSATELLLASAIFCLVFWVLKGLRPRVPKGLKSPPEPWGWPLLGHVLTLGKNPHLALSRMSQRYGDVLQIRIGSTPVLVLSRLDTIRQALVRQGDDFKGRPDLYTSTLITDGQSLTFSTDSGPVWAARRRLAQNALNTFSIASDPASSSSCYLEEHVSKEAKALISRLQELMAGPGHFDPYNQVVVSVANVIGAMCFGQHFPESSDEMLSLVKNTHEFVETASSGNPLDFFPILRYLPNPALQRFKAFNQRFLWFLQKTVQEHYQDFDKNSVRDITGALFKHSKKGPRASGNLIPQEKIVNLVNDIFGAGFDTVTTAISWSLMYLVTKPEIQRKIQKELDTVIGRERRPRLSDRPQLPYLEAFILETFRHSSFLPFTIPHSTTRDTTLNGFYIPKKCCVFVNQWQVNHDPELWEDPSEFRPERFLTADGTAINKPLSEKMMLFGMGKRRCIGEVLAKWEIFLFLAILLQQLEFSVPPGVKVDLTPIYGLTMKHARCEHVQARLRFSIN
Source text: (§3) In Vitro CYP450 Reaction Phenotyping Study in Supersomes™ Over-Expressing Human CYP Enzymes The CYPP450 enzymes involved in the Phase I metabolism of Compound 1 Form A were investigated in vitro. […] No evidence of Compound 1 metabolism by CYP2B6, CYP2C8, CYP2C9 and CYP2C19 was observed.

[6] = molecular target: T5, CYP2D6 (Homo sapiens, UniProt P10635); assay: CYP450 reaction phenotyping in Supersomes, CYP2D6
T5 construct: purchased
Source text: as §3

[7] = molecular target: T6, CYP3A4 (Homo sapiens, UniProt P08684); assay: CYP450 reaction phenotyping in Supersomes, CYP3A4
T6 construct: purchased
Source text: as §3

[8] = molecular target: T4, CYP1A2; assay: CYP inhibition in human liver microsomes, CYP1A2
Source text: (§4) In Vitro CYP Inhibition of CYP1A2, CYP2C8, CYP2C9, CYP2C19, CYP2D6 and CYP3A4 in Human Liver Microsomes This study assessed the potential inhibitory effect of Compound 1 Form A toward CYP1A2, CYP2C8, CYP2C9, CYP2C19, CYP2D6 and CYP3A4. Known inhibitors of each CYP were used as positive controls.

[9] = molecular target: T7, CYP2C8 (Homo sapiens, UniProt P10632); assay: CYP inhibition in human liver microsomes, CYP2C8
T7 construct: purchased
Source text: as §4

[10] = molecular target: T8, CYP2C9 (Homo sapiens, UniProt P11712); assay: CYP inhibition in human liver microsomes, CYP2C9
T8 construct: purchased
Source text: as §4

[11] = molecular target: T5, CYP2D6; assay: CYP inhibition in human liver microsomes, CYP2D6
Source text: as §4

[12] = molecular target: T6, CYP3A4; assay: CYP inhibition in human liver microsomes, CYP3A4
Source text: as §4

[13] = molecular target: T6, CYP3A4; assay: Metabolism dependent inhibition in human liver microsomes, CYP3A4
Source text: (§5) In Vitro Metabolite Dependent Inhibition of CYP2D6 and CYP3A4 Study in Human Liver Microsomes
(§6) This study assessed the metabolism dependent inhibition potential of Compound 1 Form A toward CYP3A4 and CYP2D6 in human liver microsomes. Troleandomycin and paroxetine, known metabolism dependent inhibitors of CYP3A4 and CYP2D6, respectively were used as positive controls.

[14] = molecular target: T5, CYP2D6; assay: Metabolism dependent inhibition in human liver microsomes, CYP2D6
Source text: as §5, §6

[15] = molecular target: CYP2C19 (Homo sapiens, UniProt P33261); assay: CYP inhibition in human liver microsomes, CYP2C19; set-up: CYP2D6 and CYP3A4 in Human Liver Microsomes; from tissue; host or cells: human liver microsomes
Source text: as §4

T6 sequence (P08684 whole entry): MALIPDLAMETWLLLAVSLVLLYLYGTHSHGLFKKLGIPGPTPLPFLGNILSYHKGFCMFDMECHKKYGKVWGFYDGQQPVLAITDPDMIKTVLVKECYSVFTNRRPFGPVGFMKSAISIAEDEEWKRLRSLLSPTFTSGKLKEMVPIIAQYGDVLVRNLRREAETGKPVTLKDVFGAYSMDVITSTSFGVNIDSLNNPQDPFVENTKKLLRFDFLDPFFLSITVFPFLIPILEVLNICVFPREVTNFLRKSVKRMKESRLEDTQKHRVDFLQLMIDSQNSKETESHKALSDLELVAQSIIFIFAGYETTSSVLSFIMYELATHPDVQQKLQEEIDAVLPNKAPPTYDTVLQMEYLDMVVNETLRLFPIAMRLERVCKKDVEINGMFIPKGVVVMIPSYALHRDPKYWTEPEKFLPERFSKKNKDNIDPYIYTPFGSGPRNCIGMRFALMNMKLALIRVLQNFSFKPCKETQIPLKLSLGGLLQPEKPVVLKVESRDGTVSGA
T5 sequence (P10635 whole entry): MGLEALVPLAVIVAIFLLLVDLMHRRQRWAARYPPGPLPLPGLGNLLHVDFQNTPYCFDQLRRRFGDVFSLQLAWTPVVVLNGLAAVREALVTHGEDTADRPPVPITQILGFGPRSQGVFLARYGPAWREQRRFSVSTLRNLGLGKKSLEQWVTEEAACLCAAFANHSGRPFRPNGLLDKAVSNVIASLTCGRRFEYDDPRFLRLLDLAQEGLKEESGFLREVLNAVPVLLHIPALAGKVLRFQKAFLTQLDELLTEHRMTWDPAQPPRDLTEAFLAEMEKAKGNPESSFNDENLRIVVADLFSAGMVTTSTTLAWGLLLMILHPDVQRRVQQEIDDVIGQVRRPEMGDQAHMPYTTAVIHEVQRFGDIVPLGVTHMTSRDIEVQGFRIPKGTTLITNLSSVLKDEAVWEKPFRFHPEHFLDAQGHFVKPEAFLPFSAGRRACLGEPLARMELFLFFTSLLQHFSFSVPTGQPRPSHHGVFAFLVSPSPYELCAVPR
BSEP, sequence (O95342 whole entry): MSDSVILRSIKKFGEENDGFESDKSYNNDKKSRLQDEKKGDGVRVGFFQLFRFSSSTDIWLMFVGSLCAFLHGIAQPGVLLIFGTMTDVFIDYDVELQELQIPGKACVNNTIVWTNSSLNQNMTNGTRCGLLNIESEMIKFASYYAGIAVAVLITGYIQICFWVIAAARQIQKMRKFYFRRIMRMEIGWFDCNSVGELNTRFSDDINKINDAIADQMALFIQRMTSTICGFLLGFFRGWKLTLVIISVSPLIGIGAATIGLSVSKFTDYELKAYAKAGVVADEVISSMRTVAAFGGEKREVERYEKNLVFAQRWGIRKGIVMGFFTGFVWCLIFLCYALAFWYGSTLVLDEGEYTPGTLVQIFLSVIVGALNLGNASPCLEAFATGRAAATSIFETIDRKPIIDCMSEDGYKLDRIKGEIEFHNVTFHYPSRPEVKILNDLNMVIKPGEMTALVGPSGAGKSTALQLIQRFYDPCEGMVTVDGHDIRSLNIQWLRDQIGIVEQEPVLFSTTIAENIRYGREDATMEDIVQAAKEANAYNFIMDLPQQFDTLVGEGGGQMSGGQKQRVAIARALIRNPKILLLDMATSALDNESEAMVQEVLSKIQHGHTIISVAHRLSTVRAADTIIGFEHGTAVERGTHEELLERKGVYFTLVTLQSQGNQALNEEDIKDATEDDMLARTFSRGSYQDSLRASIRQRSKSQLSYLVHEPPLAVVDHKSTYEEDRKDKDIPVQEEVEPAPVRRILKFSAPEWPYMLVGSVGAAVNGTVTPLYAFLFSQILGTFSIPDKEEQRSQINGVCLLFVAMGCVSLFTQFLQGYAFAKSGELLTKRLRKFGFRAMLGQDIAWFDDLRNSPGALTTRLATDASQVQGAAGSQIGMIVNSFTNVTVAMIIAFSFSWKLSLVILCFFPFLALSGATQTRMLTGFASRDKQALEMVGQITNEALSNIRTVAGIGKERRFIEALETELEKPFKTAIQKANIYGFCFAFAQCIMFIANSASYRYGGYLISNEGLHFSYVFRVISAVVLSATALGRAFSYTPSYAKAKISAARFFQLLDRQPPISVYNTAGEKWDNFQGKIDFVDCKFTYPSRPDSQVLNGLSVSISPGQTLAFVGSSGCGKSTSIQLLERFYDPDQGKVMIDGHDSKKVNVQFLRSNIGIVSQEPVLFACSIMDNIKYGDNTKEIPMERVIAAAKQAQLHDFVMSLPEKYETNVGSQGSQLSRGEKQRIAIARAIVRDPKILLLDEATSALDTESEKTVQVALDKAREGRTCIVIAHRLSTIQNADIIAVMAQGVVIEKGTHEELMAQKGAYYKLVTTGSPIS
T7 sequence (P10632 whole entry): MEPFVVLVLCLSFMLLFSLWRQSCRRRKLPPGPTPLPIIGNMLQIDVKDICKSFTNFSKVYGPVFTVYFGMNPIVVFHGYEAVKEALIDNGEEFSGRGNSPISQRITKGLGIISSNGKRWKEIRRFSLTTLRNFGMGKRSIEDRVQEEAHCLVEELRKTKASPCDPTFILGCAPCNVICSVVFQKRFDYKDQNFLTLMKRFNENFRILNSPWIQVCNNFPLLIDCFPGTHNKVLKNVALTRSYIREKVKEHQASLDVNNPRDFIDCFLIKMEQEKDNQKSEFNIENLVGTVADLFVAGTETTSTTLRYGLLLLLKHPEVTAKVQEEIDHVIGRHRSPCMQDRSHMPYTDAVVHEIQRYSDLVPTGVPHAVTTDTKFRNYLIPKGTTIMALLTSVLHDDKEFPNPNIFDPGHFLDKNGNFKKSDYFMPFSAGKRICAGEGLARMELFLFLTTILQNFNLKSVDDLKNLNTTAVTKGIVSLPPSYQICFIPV
T1 sequence (P08183 whole entry): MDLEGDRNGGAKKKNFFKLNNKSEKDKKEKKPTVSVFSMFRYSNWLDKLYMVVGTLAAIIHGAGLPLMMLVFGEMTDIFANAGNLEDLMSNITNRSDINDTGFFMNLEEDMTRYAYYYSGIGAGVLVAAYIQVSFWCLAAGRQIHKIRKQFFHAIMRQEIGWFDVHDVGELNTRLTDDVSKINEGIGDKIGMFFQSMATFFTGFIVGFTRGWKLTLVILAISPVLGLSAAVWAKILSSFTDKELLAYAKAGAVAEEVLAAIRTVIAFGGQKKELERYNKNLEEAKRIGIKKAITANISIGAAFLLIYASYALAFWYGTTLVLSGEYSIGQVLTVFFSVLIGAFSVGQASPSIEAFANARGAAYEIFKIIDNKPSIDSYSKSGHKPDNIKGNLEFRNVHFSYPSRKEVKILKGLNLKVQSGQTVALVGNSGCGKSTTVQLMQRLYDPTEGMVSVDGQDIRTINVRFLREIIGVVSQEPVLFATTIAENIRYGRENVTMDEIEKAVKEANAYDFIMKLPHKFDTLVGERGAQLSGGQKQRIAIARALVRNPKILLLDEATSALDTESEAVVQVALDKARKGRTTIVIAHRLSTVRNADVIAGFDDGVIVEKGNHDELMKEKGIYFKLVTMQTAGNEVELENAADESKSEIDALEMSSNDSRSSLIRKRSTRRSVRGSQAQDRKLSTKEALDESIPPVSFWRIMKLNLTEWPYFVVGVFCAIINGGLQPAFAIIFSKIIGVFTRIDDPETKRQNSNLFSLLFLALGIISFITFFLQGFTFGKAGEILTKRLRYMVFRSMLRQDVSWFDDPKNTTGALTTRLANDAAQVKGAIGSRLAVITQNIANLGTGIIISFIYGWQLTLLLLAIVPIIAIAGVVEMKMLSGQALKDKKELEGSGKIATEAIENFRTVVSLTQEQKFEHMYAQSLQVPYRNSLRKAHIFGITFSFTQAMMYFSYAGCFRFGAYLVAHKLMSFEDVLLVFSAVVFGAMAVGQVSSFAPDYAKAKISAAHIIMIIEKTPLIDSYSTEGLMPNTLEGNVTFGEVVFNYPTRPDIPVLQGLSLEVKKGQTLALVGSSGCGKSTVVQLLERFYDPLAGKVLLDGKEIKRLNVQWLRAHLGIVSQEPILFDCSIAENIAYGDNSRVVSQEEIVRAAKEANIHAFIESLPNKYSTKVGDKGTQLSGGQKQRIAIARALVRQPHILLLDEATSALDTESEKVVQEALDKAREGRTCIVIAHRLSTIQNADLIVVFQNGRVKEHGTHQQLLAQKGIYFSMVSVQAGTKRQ
T8 sequence (P11712 whole entry): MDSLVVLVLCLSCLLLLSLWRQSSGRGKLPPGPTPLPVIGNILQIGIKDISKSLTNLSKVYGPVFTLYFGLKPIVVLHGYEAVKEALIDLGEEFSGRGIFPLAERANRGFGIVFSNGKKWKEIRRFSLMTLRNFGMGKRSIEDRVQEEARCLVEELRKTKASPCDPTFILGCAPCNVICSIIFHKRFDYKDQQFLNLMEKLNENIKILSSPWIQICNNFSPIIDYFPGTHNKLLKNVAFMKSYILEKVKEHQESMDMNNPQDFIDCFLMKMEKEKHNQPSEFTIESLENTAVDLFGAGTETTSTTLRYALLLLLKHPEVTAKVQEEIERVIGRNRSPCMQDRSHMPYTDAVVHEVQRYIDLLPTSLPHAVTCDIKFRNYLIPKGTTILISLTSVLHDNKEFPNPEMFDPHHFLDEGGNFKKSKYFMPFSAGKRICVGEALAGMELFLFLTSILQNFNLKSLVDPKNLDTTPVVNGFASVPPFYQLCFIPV
CYP2C19, sequence (P33261 whole entry): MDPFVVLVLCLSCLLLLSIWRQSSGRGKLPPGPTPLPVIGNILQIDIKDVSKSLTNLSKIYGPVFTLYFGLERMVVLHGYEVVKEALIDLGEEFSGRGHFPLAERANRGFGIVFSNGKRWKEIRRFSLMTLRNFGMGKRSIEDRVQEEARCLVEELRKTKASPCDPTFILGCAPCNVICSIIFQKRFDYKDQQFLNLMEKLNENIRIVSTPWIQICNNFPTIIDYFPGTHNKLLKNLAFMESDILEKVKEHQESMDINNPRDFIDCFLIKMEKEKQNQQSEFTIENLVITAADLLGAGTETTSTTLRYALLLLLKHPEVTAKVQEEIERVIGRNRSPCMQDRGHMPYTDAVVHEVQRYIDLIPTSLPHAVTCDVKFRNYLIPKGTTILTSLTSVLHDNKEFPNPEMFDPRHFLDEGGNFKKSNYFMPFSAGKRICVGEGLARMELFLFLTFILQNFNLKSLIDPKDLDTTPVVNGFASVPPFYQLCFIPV

**Q.** How did the IC50 [1] turn out when `O=C1N[C@H](c2cncc(C#Cc3ccccc3)c2)[C@@H](c2ccccc2Cl)O1` [Compound 1 Form A, (4R,5R)-5-(2-chlorophenyl)-4-(5-(phenylethynyl)pyridin-3-yl)oxazolidin-2-one] was run?
**A.** Its IC50 is 27.7 µM.

**Q.** What about the IC50 [2] of the same compound?
**A.** Its IC50 is 6.74 µM.

**Q.** And the IC50 [3]?
**A.** The IC50 was 32 µM.

**Q.** And the IC50 [4]?
**A.** The IC50 was 13.9 µM.

**Q.** And the “predicted contribution to total metabolism” value (shortened to “predicted contribution”) ([5]; CYP1A2, relative activity of factors method)?
**A.** The value was 43.1%.

**Q.** What about the CLint ([5]; Supersomes, CYP1A2) of the same compound?
**A.** Its CLint is 0.261 μL/min/pmol CYP.

**Q.** And the half-life ([5]; human, Supersomes over-expressing human CYP1A2, Supersomes, CYP1A2)?
**A.** The half-life was 1.07 h.

**Q.** And the “predicted contribution” value ([6]; CYP2D6, relative activity of factors method)?
**A.** Its value is 18%.

**Q.** What about the CLint ([6]; Supersomes, CYP2D6) of the same compound?
**A.** The CLint was 0.984 μL/min/pmol CYP.

**Q.** And the half-life ([6]; human, Supersomes over-expressing human CYP2D6, Supersomes, CYP2D6)?
**A.** The half-life was 0.233 h.

**Q.** What about the “predicted contribution” value ([7]; CYP3A4, relative activity of factors method) of the same compound?
**A.** Its value is 38.9%.

**Q.** What about the CLint ([7]; Supersomes, CYP3A4) of the same compound?
**A.** Its CLint is 0.0786 μL/min/pmol CYP.

**Q.** And the half-life ([7]; human, Supersomes over-expressing human CYP3A4, Supersomes, CYP3A4)?
**A.** The half-life was 2.93 h.

**Q.** And the IC50 [8]?
**A.** Its IC50 is 1.95 µM.

**Q.** What about the IC50 [9] of the same compound?
**A.** Its IC50 is 52.1 µM.

**Q.** And the IC50 [10]?
**A.** Its IC50 is 12.4 µM.

**Q.** What about the “inhibition of CYP2D6” value [11] of the same compound?
**A.** Its value is “no inhibition”.

**Q.** What about the IC50 ([12]; atorvastatin only) of the same compound?
**A.** The IC50 was 55.7 µM.

**Q.** What about the “inhibition of CYP3A4” value ([12]; midazolam as substrate) of the same compound?
**A.** Its value is “no inhibition”.

**Q.** What about the “inhibition of CYP3A4” value ([12]; nifedipine as substrate) of the same compound?
**A.** Its value is “no inhibition”.

**Q.** What about the “metabolism dependent inhibition of CYP3A4” value [13] of the same compound?
**A.** The value was “not a metabolism dependent inhibitor”.

**Q.** And the “metabolism dependent inhibition of CYP2D6” value [14]?
**A.** Its value is “not a metabolism dependent inhibitor”.

**Q.** And the IC50 [15]?
**A.** The IC50 was 6.17 µM.

— US20250230149A1, “MGLUR5 MODULATING COMPOUNDS, COMPOSITIONS, AND METHODS OF USE” (Allyx Therapeutics, Inc., priority 2022, published 2025)
